According to patent US11707440B2 (priority 2017, dated 2023):

Test system: patients with treatment-resistant depression (TRD)
Test: Adverse events, Example 7
Format: in vivo, human
Conditions: for Dissociation, number of participants / Dissociative disorder, % of participants / Dissociative disorder, number of participants / Dizziness, % of participants / Dizziness, number of participants / Dysgeusia, % of participants / Dysgeusia, number of participants / Feeling abnormal, % of participants / Feeling abnormal, number of participants / Headache, % of participants / Headache, number of participants / Hypersomnia, % of participants / Hypersomnia, number of participants / Hypertension, number of participants / Hypoesthesia oral, % of participants / Hypoesthesia oral, number of participants / Insomnia, number of participants / Nasal discomfort, number of participants / Nausea, % of participants / Nausea, number of participants / Oropharyngeal pain, number of participants / Polyuria, number of participants / Sedation, % of participants / Sedation, number of participants / Throat irritation, % of participants / Throat irritation, number of participants / Total with events, % of participants / Total with events, number of participants / Tunnel vision, number of participants / Vertigo, % of participants / Vertigo, number of participants / Vision blurred, number of participants / Dissociation, % of participants / Hypertension, % of participants / Insomnia, % of participants / Nasal discomfort, % of participants / Oropharyngeal pain, % of participants / Polyuria, % of participants / Tunnel vision, % of participants / Vision blurred, % of participants: double-blind
Protocol: Adverse events were monitored throughout the study. Other safety assessments (i.e., laboratory tests, vital signs, physical examination) were performed at pre-specified time points. Vital signs, the Clinician Administered Dissociative States Scale (CADSS; Bremner, “Measurement of dissociative states with the clinician-administered dissociative states scale (CADSS)”, J. Traumatic Stress, 1998, 11(1):125-136), and the 4-item positive symptom subscale from the Brief Psychiatric Rating Scale (BPRS; Overall, “The Brief Psychiatric Rating Scale. Psychological Reports”, 1962, 10:799-812) were assessed pre-dose, at 40 minutes, and 2 hours post-dose.
Safety data were analyzed in Period 1, Period 2, double-blind, and open-label data sets, for all subjects receiving at least 1 dose of study medication.

CN[C@]1(c2ccccc2Cl)CCCCC1=O [esketamine, (S)-2-(2-chlorophenyl)-2-(methylamino)cyclohexanone]
Dissociation, number of participants (28 mg): 0 | Dissociative disorder, % of participants (28 mg): 11% | Dissociative disorder, number of participants (28 mg): 2 | Dizziness, % of participants (28 mg): 21% | Dizziness, number of participants (28 mg): 4 | Dysgeusia, % of participants (28 mg): 11% | Dysgeusia, number of participants (28 mg): 2 | Feeling abnormal, % of participants (28 mg): 11% | Feeling abnormal, number of participants (28 mg): 2 | Headache, % of participants (28 mg): 32% | Headache, number of participants (28 mg): 6 | Hypersomnia, % of participants (28 mg): 11% | Hypersomnia, number of participants (28 mg): 2 | Hypertension, number of participants (28 mg): 0 | Hypoesthesia oral, % of participants (28 mg): 5% | Hypoesthesia oral, number of participants (28 mg): 1 | Insomnia, number of participants (28 mg): 0 | Nasal discomfort, number of participants (28 mg): 0 | Nausea, % of participants (28 mg): 11% | Nausea, number of participants (28 mg): 2 | Oropharyngeal pain, number of participants (28 mg): 0 | Polyuria, number of participants (28 mg): 0 | Sedation, % of participants (28 mg): 5% | Sedation, number of participants (28 mg): 1 | Throat irritation, % of participants (28 mg): 5% | Throat irritation, number of participants (28 mg): 1 | Total with events, % of participants (28 mg): 58% | Total with events, number of participants (28 mg): 11 | Tunnel vision, number of participants (28 mg): 0 | Vertigo, % of participants (28 mg): 11% | Vertigo, number of participants (28 mg): 2 | Vision blurred, number of participants (28 mg): 0 | Dissociation, % of participants (56 mg): 35% | Dissociation, number of participants (56 mg): 7 | Dissociative disorder, % of participants (56 mg): 5% | Dissociative disorder, number of participants (56 mg): 1 | Dizziness, % of participants (56 mg): 40% | Dizziness, number of participants (56 mg): 8 | Dysgeusia, % of participants (56 mg): 15% | Dysgeusia, number of participants (56 mg): 3 | Feeling abnormal, % of participants (56 mg): 5% | Feeling abnormal, number of participants (56 mg): 1 | Headache, % of participants (56 mg): 15% | Headache, number of participants (56 mg): 3 | Hypersomnia, number of participants (56 mg): 0 | Hypertension, % of participants (56 mg): 10% | Hypertension, number of participants (56 mg): 2 | Hypoesthesia oral, % of participants (56 mg): 20% | Hypoesthesia oral, number of participants (56 mg): 4 | Insomnia, % of participants (56 mg): 10% | Insomnia, number of participants (56 mg): 2 | Nasal discomfort, % of participants (56 mg): 10% | Nasal discomfort, number of participants (56 mg): 2 | Nausea, % of participants (56 mg): 20% | Nausea, number of participants (56 mg): 4 | Oropharyngeal pain, % of participants (56 mg): 5% | Oropharyngeal pain, number of participants (56 mg): 1 | Polyuria, % of participants (56 mg): 10% | Polyuria, number of participants (56 mg): 2 | Sedation, % of participants (56 mg): 10% | Sedation, number of participants (56 mg): 2 | Throat irritation, number of participants (56 mg): 0 | Total with events, % of participants (56 mg): 80% | Total with events, number of participants (56 mg): 16 | Tunnel vision, number of participants (56 mg): 0 | Vertigo, % of participants (56 mg): 5% | Vertigo, number of participants (56 mg): 1 | Vision blurred, number of participants (56 mg): 0 | Dissociation, % of participants (84 mg): 24% | Dissociation, number of participants (84 mg): 4 | Dissociative disorder, % of participants (84 mg): 24% | Dissociative disorder, number of participants (84 mg): 4 | Dizziness, % of participants (84 mg): 47% | Dizziness, number of participants (84 mg): 8 | Dysgeusia, % of participants (84 mg): 29% | Dysgeusia, number of participants (84 mg): 5 | Feeling abnormal, % of participants (84 mg): 6% | Feeling abnormal, number of participants (84 mg): 1 | Headache, % of participants (84 mg): 18% | Headache, number of participants (84 mg): 3 | Hypersomnia, number of participants (84 mg): 0 | Hypertension, % of participants (84 mg): 6% | Hypertension, number of participants (84 mg): 1 | Hypoesthesia oral, % of participants (84 mg): 12% | Hypoesthesia oral, number of participants (84 mg): 2 | Insomnia, number of participants (84 mg): 0 | Nasal discomfort, % of participants (84 mg): 6% | Nasal discomfort, number of participants (84 mg): 1 | Nausea, % of participants (84 mg): 24% | Nausea, number of participants (84 mg): 4 | Oropharyngeal pain, % of participants (84 mg): 12% | Oropharyngeal pain, number of participants (84 mg): 2 | Polyuria, number of participants (84 mg): 0 | Sedation, % of participants (84 mg): 6% | Sedation, number of participants (84 mg): 1 | Throat irritation, % of participants (84 mg): 12% | Throat irritation, number of participants (84 mg): 2 | Total with events, % of participants (84 mg): 88% | Total with events, number of participants (84 mg): 15 | Tunnel vision, % of participants (84 mg): 12% | Tunnel vision, number of participants (84 mg): 2 | Vertigo, % of participants (84 mg): 6% | Vertigo, number of participants (84 mg): 1 | Vision blurred, % of participants (84 mg): 12% | Vision blurred, number of participants (84 mg): 2 | Dissociation, % of participants (Total esketamine): 20% | Dissociation, number of participants (Total esketamine): 11 | Dissociative disorder, % of participants (Total esketamine): 13% | Dissociative disorder, number of participants (Total esketamine): 7 | Dizziness, % of participants (Total esketamine): 36% | Dizziness, number of participants (Total esketamine): 20 | Dysgeusia, % of participants (Total esketamine): 18% | Dysgeusia, number of participants (Total esketamine): 10 | Feeling abnormal, % of participants (Total esketamine): 7% | Feeling abnormal, number of participants (Total esketamine): 4 | Headache, % of participants (Total esketamine): 21% | Headache, number of participants (Total esketamine): 12 | Hypersomnia, % of participants (Total esketamine): 4% | Hypersomnia, number of participants (Total esketamine): 2 | Hypertension, % of participants (Total esketamine): 5% | Hypertension, number of participants (Total esketamine): 3 | Hypoesthesia oral, % of participants (Total esketamine): 13% | Hypoesthesia oral, number of participants (Total esketamine): 7 | Insomnia, % of participants (Total esketamine): 4% | Insomnia, number of participants (Total esketamine): 2 | Nasal discomfort, % of participants (Total esketamine): 5% | Nasal discomfort, number of participants (Total esketamine): 3 | Nausea, % of participants (Total esketamine): 18% | Nausea, number of participants (Total esketamine): 10 | Oropharyngeal pain, % of participants (Total esketamine): 5% | Oropharyngeal pain, number of participants (Total esketamine): 3 | Polyuria, % of participants (Total esketamine): 4% | Polyuria, number of participants (Total esketamine): 2 | Sedation, % of participants (Total esketamine): 7% | Sedation, number of participants (Total esketamine): 4 | Throat irritation, % of participants (Total esketamine): 5% | Throat irritation, number of participants (Total esketamine): 3 | Total with events, % of participants (Total esketamine): 75% | Total with events, number of participants (Total esketamine): 42 | Tunnel vision, % of participants (Total esketamine): 4% | Tunnel vision, number of participants (Total esketamine): 2 | Vertigo, % of participants (Total esketamine): 7% | Vertigo, number of participants (Total esketamine): 4 | Vision blurred, % of participants (Total esketamine): 4% | Vision blurred, number of participants (Total esketamine): 2 | Participants with adverse events leading to discontinuation of study drug (double-blind phase): 5% | Adverse event dizziness (open-label phase): 38.6% | Adverse event dysgeusia (open-label phase): 22.8% | Adverse event headache (open-label phase): 14.0% | Adverse event nausea (open-label phase): 15.8% | Adverse event sedation (open-label phase): 10.5% | Participants reporting transient dissociative symptoms (open-label phase): 24.6% | Participants with adverse events leading to discontinuation of study drug (open-label phase): 2%
